Experiments:
NMD = assay: β-Gl Norm/Ter NMD reporter in MCF7 cells during doxorubicin treatment; type: cell-based, human; details: MCF7, 5 μM doxorubicin, by 5 h (from ~65% before)
Protocol: In FIG. 9a, MCF7 cells were treated with […] doxorubicin for the hours (h) indicated. mRNA-to-pre-mRNA ratios for the specified transcripts were measured using RT-qPCR and normalized to the ratio at 0 h, which is defined as 100%. The level of each pre-mRNA was also normalized to the level of GAPDH mRNA, and the normalized level at 0 h is defined as 100%. There are separate scales for the graphs of mRNA/pre-mRNA ratios (left) and the graphs of pre-mRNA/GAPDH mRNA ratios (right). Separately, MCF7 cells were transfected with plasmids encoding reporter β-Gl Norm mRNA or β-Gl Ter mRNA together with a plasmid encoding the reference MUP mRNA and subsequently exposed to doxorubicin (5 μM) for the times indicated. Reporter transcript levels were normalized to the level of MUP mRNA, and the normalized level of β-Gl Ter mRNA was presented as a percentage of the normalized level of β-Gl Norm mRNA, which is defined as 100% at 0 h. Error bars=S.E.M., asterisk=p<0.05 relative to the 0 h time point using the Student's t-test. #=pre-mRNA levels below qPCR detection threshold. n>3 independent biological replicates. […] HeLa and MCF7 cells were transfected with either control (Ctrl) siRNA or UPF1 siRNA, the latter to deplete endogenous UPF1 protein to less than 5% of the normal level (top western blots). mRNA/pre-mRNA ratios were then assessed using RT-qPCR as in FIG. 1a (bottom). […]

UPF1 = assay: Western blot of UPF1 CP generation in COS-7 cells; type: cell-based, African green monkey; details: COS-7, 2 μM staurosporine or 2 μg/mL doxorubicin
Protocol: FIG. 10b is essentially as in a, but using lysates of HEK293T cells exposed to 1 μM staurosporine. FIG. 10c is essentially as in a, but using lysates of human Daudi B lymphoblasts exposed to 40 ng/mL TNF-α or 2 μg/mL doxorubicin. FIG. 10d is essentially as in a, but using lysates of human Jurkat T cells exposed to 1 μM staurosporine. FIG. 10e is essentially as in a, but using lysates of canine MDCK cells exposed to 2 μM staurosporine. FIG. 10f is essentially as in a, but using lysates of bovine MDBK cells exposed to 2 μM staurosporine. FIG. 10g is essentially as in a, but using lysates of Chinese Hamster Ovary (CHO) cells exposed to 2 μM staurosporine. FIG. 10h is essentially as in a, but using lysates of African green monkey COS-7 cells exposed to 2 μM staurosporine or 2 μg/mL doxorubicin. At least two apoptotic inducers were used for each cell line, and at least two cell lines were tested with each apoptotic inducer.
Cells were lysed, and protein was isolated using hypotonic buffer that consists of 10 mM Tris-C1, pH 7.4, 10 mM NaCl, 2 mM EDTA, 0.5% Triton X-100, 2 mM benzamidine, 1 mM PMSF, NEM (50 μg/mL), 1× phosphatase inhibitor cocktail (Roche), and 1× protease inhibitor cocktail (Roche; Basel, Switzerland). […] Immunoreactivity was assessed using SuperSignal West Pico or Femto (Pierce Biotechnology; Waltham, Mass.).

## COc1cccc2c1C(=O)c1c(O)c3c(c(O)c1C2=O)C[C@@](O)(C(=O)CO)C[C@@H]3O[C@H]1C[C@H](N)[C@H](O)[C@H](C)O1 [doxorubicin, Doxorubicin]
NMD
  level of β-Gl Ter mRNA as % of the level of β-Gl Norm mRNA: ~85%
UPF1
  UPF1 CP generation: yielded a UPF1 CP

— patent US20160279110A1, “COMPOSITIONS AND METHODS FOR TREATING CANCER” (UNIVERSITY OF ROCHESTER, priority 2015, published 2016)
